Values of other authors in paper PMC12377202, “Design, synthesis, and cytotoxic evaluation of quinazoline-based derivatives as VEGER-2 inhibitors: comparative study against EGFR kinase activity, induction of apoptosis, and molecular docking study” (RSC Advances, 2025).
Converted amounts (≈) assume the structure as drawn. Read-outs that look alike come from different tables or passages of the source.

Columns and labels:
VEGFR-2 kinase = conditions: cited from earlier work
HepG2 = conditions: cited from earlier work
PC3 = conditions: cited from earlier work
MCF-7 = conditions: cited from earlier work
WI-38 = conditions: read-out: IC50 normal WI-38 cells; cited from earlier work

Row | SMILES | IC50 (VEGFR-2 kinase; read-out: IC50 against VEGFR-2 kinase) | IC50 HepG2 (HepG2) | IC50 PC3 (PC3) | IC50 MCF-7 (MCF-7) | IC50 (WI-38) | IC50 (VEGFR-2 kinase; read-out: VEGFR-2 inhibition IC50)
1 | O=C(CSc1nc2ccc([N+](=O)[O-])cc2c(=O)n1-c1ccccc1)NNC(=O)c1ccccc1 [VII] | 4600 ± 60 nM | 17.23 µg/mL (≈ 36.2 µM) | 26.10 µg/mL (≈ 54.9 µM) | 30.85 µg/mL (≈ 64.9 µM) | 146 µM | 
2 | O=C(Nc1ccc(Oc2nc(Cl)nc3ccccc23)cc1)c1cccnc1 [VIII] |  | 24.10 µg/mL (≈ 64 µM) | 40.90 µg/mL (≈ 109 µM) | 33.40 µg/mL (≈ 88.6 µM) |  | 60 nM
